Results from PubChem BioAssay (NCI).
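Cultured in 96-well plates, cells were exposed to test compound for 48 hours across five concentrations. Here, GI50 denotes the concentration required for 50% inhibition of growth. At the TGI there is no net growth.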

What was measured:
Assay in all cases: NCI tumour cell line growth inhibition, 48 h
[1] = system: SNB-75 CNS
[2] = system: HOP-92 NSCLC
[3] = system: PC-3 prostate
[4] = system: U251 CNS
[5] = system: LOX IMVI melanoma
[6] = system: T-47D breast
[7] = system: COLO 205 colon
[8] = system: K-562 leukemia
[9] = system: SK-OV-3 ovarian
[10] = system: HL-60(TB) leukemia
[11] = system: SF-539 CNS
[12] = system: RPMI-8226 leukemia
[13] = system: OVCAR-8 ovarian
[14] = system: SK-MEL-2 melanoma
[15] = system: IGROV1 ovarian
[16] = system: NCI-H23 lung
[17] = system: A498 renal
[18] = system: TK-10 renal
[19] = system: CCRF-CEM leukemia
[20] = system: OVCAR-3 ovarian
[21] = system: HCT-116 colon
[22] = system: SW-620 colon
[23] = system: MALME-3M melanoma
[24] = system: BT-549 breast
[25] = system: DU-145 prostate
[26] = system: EKVX NSCLC
[27] = system: 786-0 renal
[28] = system: KM12 colon
[29] = system: SF-268 CNS
[30] = system: HT29 colon
[31] = system: HS 578T breast
[32] = system: HCC-2998 colon
[33] = system: UO-31 renal
[34] = system: MDA-MB-435
[35] = system: ACHN renal
[36] = system: SK-MEL-5 melanoma
[37] = system: NCI/ADR-RES ovarian
[38] = system: NCI-H460 lung
[39] = system: NCI-H522 lung
[40] = system: SK-MEL-28 melanoma
[41] = system: HCT-15 colon
[42] = system: NCI-H226 lung
[43] = system: SF-295 CNS
[44] = system: MDA-MB-468 breast
[45] = system: HOP-62 NSCLC
[46] = system: MCF7 breast
[47] = system: A549 NSCLC
[48] = system: OVCAR-5 ovarian
[49] = system: UACC-257 melanoma
[50] = system: CAKI-1 renal
[51] = system: M14 melanoma

## CN(C)c1nc(NCCNS(=O)(=O)c2ccc(C3=Nc4c(N)nc(N)nc4NC(c4ccc(F)cc4)C3)cc2)nc(Nc2ccc(F)cc2)n1 (configuration not stated)
[1]
  GI50: 2.53 µM
  TGI: 74 µM
[2]
  GI50: 3.09 µM
  TGI: 23.3 µM
[3]
  GI50: 5.04 µM
  TGI: > 100 µM
[4]
  GI50: 6.35 µM
  TGI: > 100 µM
[5]
  GI50: 2.62 µM
  TGI: 9.13 µM
[6]
  GI50: 4.86 µM
  TGI: > 100 µM
[7]
  GI50: 11.8 µM
  TGI: > 100 µM
[8]
  GI50: 2.8 µM
  TGI: > 100 µM
[9]
  GI50: > 100 µM
  TGI: > 100 µM
[10]
  GI50: 3.12 µM
  TGI: > 100 µM
[11]
  GI50: 3.89 µM
  TGI: > 100 µM
[12]
  GI50: 5.25 µM
  TGI: > 100 µM
[13]
  GI50: 12 µM
  TGI: > 100 µM
[14]
  GI50: 8.17 µM
  TGI: 29 µM
[15]
  GI50: 5.01 µM
  TGI: > 100 µM
[16]
  GI50: 54.1 µM
  TGI: > 100 µM
[17]
  GI50: 22.1 µM
  TGI: > 100 µM
[18]
  GI50: > 100 µM
  TGI: > 100 µM
[19]
  GI50: 3.99 µM
  TGI: > 100 µM
[20]
  GI50: 8.09 µM
  TGI: > 100 µM
[21]
  GI50: 4.54 µM
  TGI: > 100 µM
[22]
  GI50: 8.27 µM
  TGI: > 100 µM
[23]
  GI50: 6.28 µM
  TGI: > 100 µM
[24]
  GI50: 3.26 µM
  TGI: 18.2 µM
[25]
  GI50: 52 µM
  TGI: > 100 µM
[26]
  GI50: 5.17 µM
  TGI: > 100 µM
[27]
  GI50: 4.77 µM
  TGI: > 100 µM
[28]
  GI50: 4.69 µM
  TGI: > 100 µM
[29]
  GI50: 4.83 µM
  TGI: > 100 µM
[30]
  GI50: 3.88 µM
  TGI: > 100 µM
[31]
  GI50: 5.7 µM
  TGI: > 100 µM
[32]
  GI50: 4.22 µM
  TGI: > 100 µM
[33]
  GI50: > 100 µM
  TGI: > 100 µM
[34]
  GI50: 5.93 µM
  TGI: > 100 µM
[35]
  GI50: > 100 µM
  TGI: > 100 µM
[36]
  GI50: 3.36 µM
  TGI: 14.9 µM
[37]
  GI50: > 100 µM
  TGI: > 100 µM
[38]
  GI50: 4.74 µM
  TGI: > 100 µM
[39]
  GI50: 34.8 µM
  TGI: > 100 µM
[40]
  GI50: 15.7 µM
  TGI: > 100 µM
[41]
  GI50: > 100 µM
  TGI: > 100 µM
[42]
  GI50: > 100 µM
  TGI: > 100 µM
[43]
  GI50: 6.71 µM
  TGI: > 100 µM
[44]
  GI50: 2.15 µM
  TGI: 6.24 µM
[45]
  GI50: 96 µM
  TGI: > 100 µM
[46]
  GI50: 3.16 µM
  TGI: 43.7 µM
[47]
  GI50: > 100 µM
  TGI: > 100 µM
[48]
  GI50: > 100 µM
  TGI: > 100 µM
[49]
  GI50: 11.4 µM
  TGI: > 100 µM
[50]
  GI50: 6.5 µM
  TGI: > 100 µM
[51]
  GI50: 3.84 µM
  TGI: 25.3 µM
